“Also recorded” adds a separate entry of the source.
Columns and labels:
[1] = molecular target: T1, CeDAT (Caenorhabditis elegans, UniProt Q03614); details: mammalian cells expressing CeDAT, cited from earlier work; for Sensitivity of CeDAT-mediated DA transport to antagonists/substrates: potencies comparable to human DAT
T1 sequence (Q03614 1-615): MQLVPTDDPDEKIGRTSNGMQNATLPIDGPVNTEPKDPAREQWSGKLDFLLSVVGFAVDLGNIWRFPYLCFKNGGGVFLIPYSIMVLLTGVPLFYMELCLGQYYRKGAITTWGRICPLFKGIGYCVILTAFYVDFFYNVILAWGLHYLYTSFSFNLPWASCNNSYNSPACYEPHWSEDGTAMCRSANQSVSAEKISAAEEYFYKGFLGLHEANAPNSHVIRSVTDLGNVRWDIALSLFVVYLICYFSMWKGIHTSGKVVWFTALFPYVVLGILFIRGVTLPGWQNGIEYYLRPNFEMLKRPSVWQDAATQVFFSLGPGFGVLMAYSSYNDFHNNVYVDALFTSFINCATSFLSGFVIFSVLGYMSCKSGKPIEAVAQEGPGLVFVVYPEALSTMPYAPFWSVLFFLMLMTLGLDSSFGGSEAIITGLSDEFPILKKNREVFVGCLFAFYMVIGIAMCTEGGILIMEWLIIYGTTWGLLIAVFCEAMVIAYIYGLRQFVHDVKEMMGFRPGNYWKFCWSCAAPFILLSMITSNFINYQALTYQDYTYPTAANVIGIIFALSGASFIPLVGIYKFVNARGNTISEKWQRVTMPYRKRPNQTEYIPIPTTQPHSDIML

[2] = test system: C. elegans DA neurons; experiment: 6-OHDA assay: GFP signal in DA neurons of Pdat-1::GFP transgenic worms; assay type: in vivo; details: for Protection against 6-OHDA toxicity (GFP signal in DA neurons): coincubated with 6-OHDA, 10 mM test substance
Method: Synchronized cultures of nematodes were prepared by collecting gravid worms from one or two 100 mm 8P/NA22 plates, washing them 2 times in approximately 10 mls dH2O (2,000 rpm for 2 min), and incubating them in alkaline hypochlorite for 7-10 min. essentially as described (Emmons et al., 1979; Epstein and Shakes, 1995). Following the 17-24 hour incubation in M9 to obtain the synchronized L1's, the worms were washed once in 10 mls dH2O, spread on 8P/NA22 plates and incubated at 24° C. for 25-29 hours. The L3 larvae were collected, washed once or twice in dH2O, and added to the assay mix (to a final OD600 worms of 0.1-0.2) containing 10 mM ascorbic acid containing 10 or 50 mM 6-hydroxydopamine +/−10 mM d-amphetamine or 1 mM imipramine. The assay mix (1-2 mls) was incubated for 1 hour at 24° C., and mixed gently every 15 min. The worms were then washed in 0.5-1 ml dH2O as above and spread on NGM/OP50 plates. The worms were examined and scored 40-80 hours post-6-OHDA exposure on 2% agarose pads, using 2% NaN3 to immobilize them. For electron microscopy, the worms are fixed approximately 60 hours following exposure to 6-OHDA.
Scoring of the CEPs were performed by applying approximately 50-60 worms on the agar pad, and examined under a Zeiss M2 fluorescent dissecting scope. All 4 CEP dendrites were examined in each worm and the GFP fluorescence within the dendrites followed from the nerve ring to the tip of the nose. If any part of the dendrite was absent, the worm was considered to have altered CEPs. The DA neurons were examined in living animals using a Zeiss Axioskop with a planApo 40 and 63× objective and a Zeiss LSM410 confocal laser-scanning microscope.
Briefly, the worms are exposed to the neurotoxin (or any other candidate substance) dissolved in a liquid suspension prior to being replated on a solid plate.
Exposure to toxins is carried out by transferring the worms to a solution of water containing 10 mM Ascorbic Acid and 10-50 mM 6OHDA in a final volume of 600 μl. The worms are incubated for 1 hour at 22-24° C. with mixing in silica coated tubes. The exposing is stopped by dilution with 1 ml of water. The tube is then pulsed at 2000 rpm for 2 minutes, resuspended in water and the worms are spread on N6M plates ([…]) coated with OP50 E. coli, which the worms feed on.

[3] = test system: ASI chemosensory neurons; experiment: 6-OHDA exposure of ASI chemosensory neurons with or without transferred DAT-1; assay type: in vivo, C. elegans
From the text: FIGS. 6A, 6B, 6C & 6D. Transfer of the DAT gene product sensitizes non-DA neurons to 6-OHDA. (FIG. 6A), ASI chemosensory neurons made transgenic for a PDAF-7::GFP reporter to reveal these cells and their processes. (FIG. 6B), Worms in FIG. 6A treated with 6-OHDA. […] (FIG. 6C), A transgenic line where PDAF7::DAT1:GFP translational fusion is expressed in the ASI neurons, brining DAT-protein to these cells. (FIG. 6D), Animals in C, exposed to 6-OHDA.

In the case of NCCc1ccc(O)c(O)c1 [DA, Dopamine], the Km ([1]; read-out: Km of Na+- and Cl--dependent DA transport) is given as 1.2 µM.

In the case of CNCCC(Oc1ccccc1OC)c1ccccc1 (stereo not shown) [nisoxetine], the “Sensitivity of CeDAT-mediated DA transport to antagonists/substrates” value (“Sensitivity … to antagonists/substrates” below) [1] is listed as “inhibited”.

In the case of C[C@H](N)Cc1ccccc1 [amphetamine, d-amphetamine], the “Protection against 6-OHDA toxicity (GFP signal in DA neurons)” value [2] is given as “prevents visible evidence of 6-OHDA toxicity” and the “Sensitivity … to antagonists/substrates” value [1] is given as “sensitive”.

For CN(C)CCCN1c2ccccc2CCc2ccccc21 [imipramine], the “Protection against 6-OHDA toxicity (GFP signal in DA neurons)” value [2] is listed as “prevents visible evidence of 6-OHDA toxicity” and the “Sensitivity … to antagonists/substrates” value [1] is listed as “inhibited”.

With NCCc1cc(O)c(O)cc1O [6-OHDA, 6-hydroxydopamine] the “Effect of 6-OHDA on GFP signal in DA neurons” value ([2]; 10 mM 6-OHDA for 1 hr, visualized 72 hrs later via confocal microscopy) was “various stages of apparent degeneration are evident”, the “Effect of 6-OHDA on DA neurons / reporter expression” value ([2]; 10-50 mM 6-OHDA, 1 hour exposure, general statements) was “selectively degraded; also recorded: loss of reporter expression” and the “Neuronal sensitivity to 6-OHDA as a function of time of exposure, dat-1 deletion strain” value ([2]; dat-1 mutant line (FIG. 5E)) was “protected”. For the same compound, the “Effect of 6-OHDA on GFP signal in dat-1 deleted strain” value ([2]; reporter transgenic line produced in a dat-1 deleted strain (FIG. 5D)) was “failure of toxin to effect loss of GFP signal”, the “Neuronal sensitivity to 6-OHDA as a function of time of exposure” value ([2]; wildtype reporter line, CEP neurons (FIG. 5E)) was “time dependent loss of CEP neurons” and the “Effect of 6-OHDA on ASI neurons expressing DAT-1” value ([3]; PDAF7::DAT1:GFP translational fusion line (FIG. 6D)) was “conferred 6-OHDA sensitivity”. The “Effect of 6-OHDA on ASI neurons lacking DAT-1” value ([3]; PDAF-7::GFP reporter line (FIG. 6B)) was “little or no effect”.

Source: patent US7531713B2, “Assay for toxin induced neuronal degeneration and viability in C. elegans” (Vanderbilt University, priority 2001, dated 2009)
